Source: patent publication US20180318263A1 (The Regents of the University of Colorado, a body corporate, priority 2016, published 2018)
Entries after “also recorded” stand apart in the source; their conditions may differ.

Columns and labels:
[1] = system: enzalutamide-resistant PCa cells; assay: colony formation of enzalutamide-resistant versus parental PCa cells; type: cell-based
Excerpt: Colony formation was examined after 2 weeks by crystal violet stain and analyzed with image J.

TRAMPC1 cells = assay: mouse TRAMPC1 cell growth / clonogenic assay; type: cell-based; conditions: for sensitivity to each drug treatment alone: TRAMPC1, enzalutamide (5 μM); for sensitivity of mouse prostate cancer cells: FIG. 12
Excerpt: FIG. 10 is an image and a graph showing mouse TRAMPC1 cell growth assay. […] Representative crystal violet stains are shown above graph.
These cells are important model because they can be placed in syngeneic C57B1 mice with a complete immune system.
This cell line from mouse PCa allows the evaluation of treatments in vivo, using immune-competent […] mice, which are syngenic with the TRAMPC1 cells.

LNCaP CPT1A-KD clones = assay: growth of LNCaP CPT1A-KD clones with enzalutamide; type: cell-based, human; conditions: enzalutamide (MDV3100) versus control clone
Protocol: (C) Relative growth of LNCaP-KD clones compared to control (NTshRNA) with Enza treatment. *p<0.001, compared to control treatment. ap<0.01 compared to control clone. (NTshRNA—left; CPT1Ash1—center; and CPT1 Ash2 at each timepoint for FIGS. 6A and 6B.)
Data is normalized to the vehicle (0 μM, no drug) treatment. Data represents mean±SD.
Etomoxir targets CPT1. […] It is possible that the decrease in AR observed with etomoxir is due to off-targets effects of the drug (besides CPT1), and/or the cells may need to be studied at earlier time points when apoptotic and ER stress mechanisms have not been set in motion.

LNCaP-Enza-Res cells = assay: growth of enzalutamide-resistant LNCaP cells (MTS); type: cell-based, human; conditions: for growth of enzalutamide-resistant LNCaP cells versus parental: single fat oxidation inhibitor, 48 hours
Excerpt: FIG. 16 is a set of four graphs split over two pages. […] Data is normalized to the vehicle treatment (no drugs). […] Data is normalized to the vehicle treatment (no drugs). […] Data is normalized to the vehicle treatment (no drugs). […] Data is normalized to the vehicle treatment (no drugs).
FIG. 17 is a pair of graphs showing the effects of treatment on the indicated cells. […] Data is normalized to the vehicle treatment (no drugs). […] Both concentrations are in microMolar (μM).
(§1) Parental LNCaP and VCaP cells treated with vehicle were used as their corresponding controls.

PCa cell lines = assay: growth/viability of PCa cell lines with etomoxir; type: cell-based, human; conditions: etomoxir (75 μM in FIG. 2D), p<0.01
Excerpt: (§2) (E) Stain of xenografts slices with phospho-4EBP1 antibody. (F) Western blot of LNCaP cells treated with vehicle (“V”) or etomoxir (“E”), C-Casp3=cleaved-caspase 3. (G) Putative diagram of mTOR signaling pathway.

mTOR = assay: ceramides and mTOR signaling after etomoxir; type: cell-based
Excerpt: as §2

PCa cells = assay: 14C-lipid oxidation in PCa cells; type: cell-based
primary PCa cells = primary PCa cells derived from prostatectomies treated with etomoxir; type: cell-based, human; conditions: data not shown
Excerpt: The effects of etomoxir in primary PCa cells derived from prostatectomies carried out at University of Colorado hospital were examined.

LNCaP cells = assay: ER stress markers in etomoxir-treated LNCaP cells; type: cell-based, human
Excerpt: (C) Phosphorylation of the α-subunit of the translation initiation factor eIF2 (p-eIF2a) and expression of LC3 cleavage marker of autophagy. (D) Agarose gel showing the spliced (activated, 447 bp) XBP1 factor that regulates the response to ER stress.

androgen receptor (AR) = assay: AR gene expression and Western blot in LNCaP cells; type: cell-based, human; conditions: etomoxir 48 hours, p<0.05
Protocol: (A) Relative AR gene expression after vehicle (“V”) or etomoxir (“E”) treatment in LNCaP cells. ARfl=full length AR; ARv7=AR variant 7; AR total=all AR isoforms; PSA=prostate specific antigen; NKX3.1=Homeodomain-containing transcription factor regulated by androgens. […] (B) Western blot of full length AR and ARV7 variant in LNCaP cells treated with etomoxir for 48 hours.

VCaP tumor = assay: VCaP xenograft tumor growth in mice treated with etomoxir; type: in vivo; conditions: VCaP xenografts, etomoxir 40 mg/kg/day for 21 days, p<0.05
Excerpt: as §2

BPH-1 and WPMY-1 cells = assay: viability of benign prostate cells with etomoxir; type: cell-based; conditions: etomoxir 75 μM
Excerpt: as §2

VCaP-Enza-Res cells = assay: growth of enzalutamide-resistant VCaP cells; type: cell-based, human; conditions: single fat oxidation inhibitor, 48 hours
Excerpt: as §1

[2] = system: tumors of human cells resistant to enzalutamide; assay: enzalutamide-resistant human tumors in nude mice treated with ranolazine; type: in vivo; conditions: injections started on day 5

## CNC(=O)c1ccc(N2C(=S)N(c3ccc(C#N)c(C(F)(F)F)c3)C(=O)C2(C)C)cc1F [enzalutamide]
[1]
  growth in the presence of enzalutamide compared to parental controls: grow better in the presence of enzalutamide
TRAMPC1 cells
  sensitivity to each drug treatment alone: not very sensitive
LNCaP CPT1A-KD clones
  cell growth of CPT1A-deficient LNCaP clones: more sensitive to enzalutamide treatment; also recorded: synergistic effect on cell growth
LNCaP-Enza-Res cells; LNCaP-enzalutamide resistant cells versus parental, p<0.001
  growth in the presence of enzalutamide: can grow in the presence of enzalutamide

## CCOC(=O)[C@@]1(CCCCCCOc2ccc(Cl)cc2)CO1 [etomoxir]
PCa cell lines
  growth / viability of PCa cells: decrease their growth and died
PCa cell lines; listed as Etomoxir
  growth / viability of PCa cells: decreases the viability
mTOR; etomoxir treatment
  mTOR and downstream effectors S6K and 4EBP-1: decreased mTOR and its downstream effectors S6K and 4EBP-1
mTOR; etomoxir treatment (not shown)
  palmitate-containing ceramides: increased palmitate-containing ceramides
PCa cells
  14C-lipid oxidation: able to block 14C-lipid oxidation
TRAMPC1 cells
  sensitivity of mouse prostate cancer cells: sensitive
Primary PCa cells
  glucose uptake: momentary increase in glucose uptake
  viability compared to matched non-cancerous cells: concomitant decrease in viability
LNCaP cells
  autophagy markers (LC3): increase in autophagy markers (LC3)
LNCaP cells; ATF4, GADD34, GRP78, CHOP, p<0.001
  markers of ER stress: increase in markers of ER stress
Androgen receptor (AR)
  expression of androgen receptor (AR) and its variant forms: significant decrease
VCaP tumor
  tumor growth: Decreased VCaP tumor growth; also recorded: also observed
BPH-1 and WPMY-1 cells
  growth effect in benign cells: not seen

## C1CCC(C(CC2CCCCN2)C2CCCCC2)CC1 (stereo not shown) [perhexiline]
TRAMPC1 cells
  sensitivity of mouse prostate cancer cells: sensitive

## COc1ccccc1OCC(O)CN1CCN(CC(=O)Nc2c(C)cccc2C)CC1 (stereo not shown) [ranolazine]
VCaP-Enza-Res cells
  growth of enzalutamide-resistant VCaP cells versus parental: more sensitive to ranolazine than their corresponding parental controls
VCaP-Enza-Res cells; listed as Ranolazine
  growth of enzalutamide-resistant VCaP cells versus parental: inhibits growth
TRAMPC1 cells
  sensitivity of mouse prostate cancer cells: sensitive
  sensitivity to each drug treatment alone: not very sensitive
[2]
  sensitivity of enzalutamide-resistant tumors: show signs of sensitivity
LNCaP-Enza-Res cells
  growth of enzalutamide-resistant LNCaP cells versus parental: more sensitive to ranolazine than their corresponding parental controls
LNCaP-Enza-Res cells; listed as Ranolazine
  growth of enzalutamide-resistant LNCaP cells versus parental: inhibits growth
